“Also recorded” adds a separate entry of the source. Where two headings read alike, the source gives them in different places. Numbered stars: 1 amine (or outer) side, 2 acyl side, 3 side chain; on linkers, the order of the positions; unused ones are H or OH. Bridge positions count the residues as written; N and C are the ends. Square brackets hold non-standard residues; d marks the D form. Peptide text beside a SMILES is read from it. I, II: the chains in the order shown. ξ: configuration not given here. Phe(4-tBu) = CC(C)(C)c1ccc(C[C@H](N)C(=O)O)cc1; Diglycolyl = O=C(COCC(=O)[*:2])[*:1]; NMeR = CN[C@@H](CCCNC(=N)N)C(=O)O; β3hE = N[C@@H](CCC(=O)O)CC(=O)O; Thr(3ξ) = CC(O)[C@H](N)C(=O)O; X1 = O=C(c1ccccc1C[*:2])[*:1]; Pen = CC(C)(S)[C@H](N)C(=O)O
Tests used:
[1] = Plasma and tissue exposure after single PO administration; type: in vivo, C57BL/6 female mice; settings: single PO 30 mg/kg
Description: Twelve treatment-naïve C57BL/6 female mice were assigned to the study. […] At 1, 3, and 6 hours (h) post-dose, 4 mice/time point were subjected to terminal bleeds and euthanized; Peyer's patches (PPs), mesenteric lymph nodes (MLNs), small intestine, and colon were collected from each animal. The blood was processed to plasma; plasma and the tissue samples were submitted for pharmacokinetic (PK) analysis of Compound A levels using a qualified liquid chromatography tandem mass spectrometry (LC-MS/MS) method.
Processed plasma and tissue samples were analyzed on an AB/MDS Sciex API 4000 mass spectrometer. Positive ions were monitored in the multiple reaction-monitoring (MRM) mode. Quantitation was by peak area ratio.
PK data analysis was carried out using non-compartmental analysis (NCA) in Phoenix WinNonlin 8.1 (Certara USA Inc.). All concentration values below the lower limit of quantitation were treated as zero for the pharmacokinetic analysis. The maximum concentration (Cmax) and the apparent time to Cmax (tmax) were obtained by observation. The area under the concentration versus time curve (AUC) was obtained by the linear trapezoidal method. All concentration data and PK parameters were reported at up to three significant figures if the value was greater than one, and at up to three decimal places if the value was less than one. Time parameters were reported at up to two decimal places. The concentration data were plotted using Excel (Microsoft).

[2] = tested on: integrin β7, integrin α4 and CCR9 on cultured CD3+ cells; assay: Gut homing receptor expression on T cells cultured with ATRA; type: cell-based, B6.SJL mice; settings: 100 and 1000 nM in culture
Description: (§1) Purified CD3+ cells were isolated from B6.SJL (CD45.1+) donor mice and cultured in the presence of anti-CD3/anti-CD28 beads and IL-2 to induce T cell activation and proliferation. In some culture conditions, Compound A and/or ATRA were added. To track the cells in vivo, ATRA− and ATRA+ cells were labeled with CMFDA and CTFR respectively. These labeled cells were then co-injected into C57BL/6 (CD45.2+) recipient mice.
Eighteen (18) B6.SJL (CD45.1+) donor mice were acclimated for 3 to 9 weeks before the start of the study and were 11 to 16 weeks old at culture setup (Day 0). On Day 0, spleen and lymph node cells were isolated from donor mice and pooled. CD3+ cells were enriched using […] Technologies kit catalog number 19851. Purity of enriched cells was confirmed by flow cytometry.
Approximately 44% of the cells were then cultured at 1.5×10^6/mL in the presence of anti-CD3/CD28 beads (Dynabeads, ThermoFisher 11453D), with a 1:1 cell to bead ratio (ATRA−, per Table 4 below). […] All-trans retinoic acid (ATRA) was then added to these cultures at a concentration of 0.1 μM.
On Day, 1 IL-2 was added to all cultures to reach a concentration of 30 U/mL.

[3] = biological target: T1, α4β7 integrin (Homo sapiens, UniProt P13612+P26010); assay: Inhibition of MAdCAM1-mediated CD4+ T cell proliferation (plate bound anti-CD3 + MAdCAM1); type: cell-based
T1 construct: endogenous in cells; host or cells: primary human CD4+ T cells enriched from PBMCs of healthy donors
T1 sequence (P13612 34-1032): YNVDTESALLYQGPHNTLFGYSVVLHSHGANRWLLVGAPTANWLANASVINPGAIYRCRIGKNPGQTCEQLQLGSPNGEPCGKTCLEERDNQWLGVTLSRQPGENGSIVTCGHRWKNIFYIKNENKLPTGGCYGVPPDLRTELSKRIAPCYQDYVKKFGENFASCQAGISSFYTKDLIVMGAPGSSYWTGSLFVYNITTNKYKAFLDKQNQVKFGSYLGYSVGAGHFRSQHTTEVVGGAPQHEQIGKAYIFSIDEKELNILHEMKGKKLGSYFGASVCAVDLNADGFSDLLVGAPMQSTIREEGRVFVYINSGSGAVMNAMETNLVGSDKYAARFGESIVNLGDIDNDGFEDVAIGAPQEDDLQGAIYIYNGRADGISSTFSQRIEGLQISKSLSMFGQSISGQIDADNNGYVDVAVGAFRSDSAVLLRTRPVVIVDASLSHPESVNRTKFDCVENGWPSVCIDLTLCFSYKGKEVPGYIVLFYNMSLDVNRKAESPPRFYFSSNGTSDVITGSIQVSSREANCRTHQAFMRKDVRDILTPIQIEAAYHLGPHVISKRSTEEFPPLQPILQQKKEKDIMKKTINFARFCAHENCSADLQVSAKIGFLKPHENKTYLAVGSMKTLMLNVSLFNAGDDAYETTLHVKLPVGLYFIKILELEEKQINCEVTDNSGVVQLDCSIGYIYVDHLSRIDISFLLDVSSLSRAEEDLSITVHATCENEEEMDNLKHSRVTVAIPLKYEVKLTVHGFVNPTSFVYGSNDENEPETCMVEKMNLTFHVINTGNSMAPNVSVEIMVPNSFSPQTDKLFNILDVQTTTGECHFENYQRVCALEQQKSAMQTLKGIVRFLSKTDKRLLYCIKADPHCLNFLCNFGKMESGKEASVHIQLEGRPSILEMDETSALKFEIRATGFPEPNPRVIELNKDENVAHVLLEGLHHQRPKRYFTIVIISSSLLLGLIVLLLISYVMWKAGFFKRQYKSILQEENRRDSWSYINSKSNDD
T1 sequence (P26010 20-798): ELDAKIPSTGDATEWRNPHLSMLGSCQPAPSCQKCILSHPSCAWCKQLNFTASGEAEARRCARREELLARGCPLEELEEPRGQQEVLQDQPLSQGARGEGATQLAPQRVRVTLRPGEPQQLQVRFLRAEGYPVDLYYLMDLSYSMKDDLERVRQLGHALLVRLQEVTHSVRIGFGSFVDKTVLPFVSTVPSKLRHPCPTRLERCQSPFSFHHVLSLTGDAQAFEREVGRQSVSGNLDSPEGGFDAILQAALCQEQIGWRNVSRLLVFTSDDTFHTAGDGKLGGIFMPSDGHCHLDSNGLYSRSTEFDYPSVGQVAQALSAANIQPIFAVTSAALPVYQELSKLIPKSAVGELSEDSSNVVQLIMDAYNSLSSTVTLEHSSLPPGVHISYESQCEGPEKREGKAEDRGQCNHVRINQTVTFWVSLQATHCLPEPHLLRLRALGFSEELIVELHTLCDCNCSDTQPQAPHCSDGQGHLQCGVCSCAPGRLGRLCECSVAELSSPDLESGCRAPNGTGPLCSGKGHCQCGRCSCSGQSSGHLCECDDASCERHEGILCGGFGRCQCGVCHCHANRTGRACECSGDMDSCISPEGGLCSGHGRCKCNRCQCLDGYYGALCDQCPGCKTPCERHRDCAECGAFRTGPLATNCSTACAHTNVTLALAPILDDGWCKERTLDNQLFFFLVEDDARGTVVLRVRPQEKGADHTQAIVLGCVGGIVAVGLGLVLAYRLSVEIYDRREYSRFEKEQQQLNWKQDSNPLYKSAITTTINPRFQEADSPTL
Description: PBMCs were purified from healthy human donors and enrichment of CD4+ T cells was performed. […] Phenotype, distribution of T-helper (Th) subsets and % RO analyses were conducted by flow cytometry of freshly stained live samples.

[4] = tested on: gut homing of ATRA+ T cells; assay: Gut homing of cultured T cells transferred into recipient mice; type: in vivo, C57BL/6 mice
Description: as §1
The proportion of ATRA− and ATRA+ cells in spleen, Peyer's patches (PP), and ileal lamina propria (LP) of the recipient mice was measured by flow cytometry to evaluate cell homing.
Thirty-eight (38) C57BL/6 (CD45.2+) recipient mice were acclimated for 9 weeks before the start of the study (Day 0) and were 16 weeks old at cell transfer (Day 5). On Day 4, recipient mice were assigned to groups in a balanced manner to achieve similar average weight across the groups.
On Day 5, after removal of CD3/CD28 beads from cell cultures with a magnet, ATRA+ cells were labeled with CFTR, and ATRA− cells were labeled with CMFDA. Cells from each culture condition were then counted. For each group, ATRA− cells and cells from one of the ATRA+ culture conditions were mixed at a 1:1 ratio per Table 8 below and transferred into the recipient mice. Approximately 13 million of each type of cells (total of 26 million cells) were injected i.v. into each mouse.
Mice in Group 2 were dosed with anti-VLA-4 once, on Day 5 prior to cell transfer. Anti-VLA-4 (PS/2) antibodies were purchased from BioXCell and were kept at −80 C until needed. Antibodies were diluted to a final concentration of 1 mg/mL with sterile PBS and dosed at 10 mg/kg, intraperitoneally. No in vivo treatment was administered to other groups.
Twenty (20) to 22 hours after cell transfer all mice were euthanized, and their blood, spleen, Peyer's patches and small intestines collected. Approximately 50 μL of plasma was isolated from the blood of each mouse and sored on dry ince until further analysis.
Cells from the following tissues were isolated from each mouse for flow cytometric analysis: • Spleen • Peyer's patches • Ileal lamina propria Isolated cells were counted and stained with anti-CD45.1 antibodies and live/dead stain. Cells were then acquired for flow cytometric analysis and the proportions of CD45.1+, ATRA+ and ATRA− cells in each tissue determined.

CC(C)C[C@@H]1NC(=O)[C@H](C(C)O)NC(=O)[C@H](CC(=O)O)NC(=O)[C@H](CO)NC(=O)[C@H](CCCNC(=N)N)N(C)C(=O)c2ccccc2CSC(C)(C)[C@@H](C(=O)N[C@@H](Cc2ccc(C(C)(C)C)cc2)C(=O)N[C@@H](CCC(=O)O)CC(=O)N[C@H](CCCCNC(=O)COCC(=O)NCCCC[C@@H](NC(=O)C[C@H](CCC(=O)O)NC(=O)[C@H](Cc2ccc(C(C)(C)C)cc2)NC(=O)[C@H]2NC(=O)[C@H](CC(C)C)NC(=O)[C@H](C(C)O)NC(=O)[C@H](CC(=O)O)NC(=O)[C@H](CO)NC(=O)[C@H](CCCNC(=N)N)N(C)C(=O)c3ccccc3CSC2(C)C)C(=O)O)C(=O)O)NC1=O (stereo partly drawn) [Compound A, ((2-Benzyl)-(N-Me-R)-Ser-Asp-Thr-Leu-Pen-(Phe(4-tBlu))-(β-homo-Glu)-(D-Lys)-OH)2 (SEQ ID NO: 5) and linker-DIG diglycolic acid] (I: [NMeR]SD[Thr(3ξ)]L[Pen][Phe(4-tBu)][β3hE][dK]-OH / II: [NMeR]SD[Thr(3ξ)]L[Pen][Phe(4-tBu)][β3hE][dK]-OH; linker I:9-II:9 via Diglycolyl; linker I:N-I:6, II:N-II:6 via X1)
Cmax ([1]; female, C57BL/6, mouse, mesenteric lymph nodes, read-out: mean Cmax, MLNs): 56.8 ng/g
AUC ([1]; female, C57BL/6, mouse, plasma): 95.4 ng·h/mL
Cmax ([1]; female, C57BL/6, mouse, plasma, read-out: mean Cmax, plasma): 19 ng/mL
Cmax ([1]; female, C57BL/6, mouse, small intestine, read-out: mean Cmax, small intestine): 13300 ng/g
mean AUC, MLNs [1]: 226 ng·h/g
mean AUC, PPs [1]: 37900 ng·h/g
mean AUC, colon [1]: 15700 ng·h/g
mean AUC, small intestine [1]: 48600 ng·h/g
mean Cmax in PPs and colon relative to small intestine [1]: approximately two-fold lower
time of peak exposure, MLNs [1]: 1 h
time of peak exposure, PPs [1]: 1 h
time of peak exposure, colon [1]: 6 h
time of peak exposure, plasma [1]: 3 h
time of peak exposure, small intestine [1]: 1 h
expression of CCR9, ATRA+/Compound A vs ATRA+/DMSO cultures [2]: did not appear to be affected
expression of integrin α4, ATRA+/Compound A vs ATRA+/DMSO cultures [2]: lower
proportion of integrin β7+ cells, ATRA+/Compound A vs ATRA+/DMSO cultures [2]: lower proportion; also recorded: smaller proportion
IC50 [3]: 4.4 nM
IC50 ([3]; Average, read-out: IC50): 3.5 nM
inhibition of MAdCAM1-mediated proliferation of CD4+ T-cells ([3]; Compound A 1 uM, inactive analog 1 uM, vedolizumab 500 ng/mL, three days): completely abolished
IC50 ([3]; Donor 7, read-out: IC50): 1.6 nM
IC50 ([3]; Donor 8, read-out: IC50): 3.7 nM
IC50 ([3]; Donor 9, read-out: IC50): 5.2 nM
IC50 ([3]; Donor 11, read-out: IC50): 8 nM
ATRA+/10^3 live cells +/− SD in Ileal LP ([4]; cells cultured with 100 nM): 4.3 +/− 1.7 /10^3 live cells
ATRA+/10^3 live cells +/− SD in Peyer's patches ([4]; cells cultured with 100 nM): 0.3 +/− 0.2 /10^3 live cells
ATRA+/10^3 live cells +/− SD in spleen ([4]; cells cultured with 100 nM): 2.9 +/− 0.3 /10^3 live cells
ATRA−/10^3 live cells +/− SD in Ileal LP ([4]; cells cultured with 100 nM): 0.3 +/− 0.1 /10^3 live cells
ATRA−/10^3 live cells +/− SD in Peyer's patches ([4]; cells cultured with 100 nM): 0.2 +/− 0.2 /10^3 live cells
ATRA−/10^3 live cells +/− SD in spleen ([4]; cells cultured with 100 nM): 9.0 +/− 1.1 /10^3 live cells
CD45.1+ cells/10^3 live cells +/− SD, Ileal LP ([4]; cells cultured with 100 nM): 4.6 +/− 1.8 /10^3 live cells
CD45.1+ cells/10^3 live cells +/− SD, Peyer's patches ([4]; cells cultured with 100 nM): 0.6 +/− 0.3 /10^3 live cells
CD45.1+ cells/10^3 live cells +/− SD, Spleen ([4]; cells cultured with 100 nM): 12.1 +/− 1.4 /10^3 live cells
Total number of cells isolated (×10^3), Ileal LP ([4]; cells cultured with 100 nM): 2005 +/− 1276 ×10^3
Total number of cells isolated (×10^3), Peyer's patches ([4]; cells cultured with 100 nM): 673 +/− 295 ×10^3
Total number of cells isolated (×10^3), Spleen ([4]; cells cultured with 100 nM): 100650 +/− 10215 ×10^3
ATRA+/10^3 live cells +/− SD in Ileal LP ([4]; cells cultured with 1000 nM): 3.5 +/− 1.8 /10^3 live cells
ATRA+/10^3 live cells +/− SD in Peyer's patches ([4]; cells cultured with 1000 nM): 0.3 +/− 0.1 /10^3 live cells
ATRA+/10^3 live cells +/− SD in spleen ([4]; cells cultured with 1000 nM): 2.4 +/− 0.5 /10^3 live cells
ATRA−/10^3 live cells +/− SD in Ileal LP ([4]; cells cultured with 1000 nM): 0.2 +/− 0.1 /10^3 live cells
ATRA−/10^3 live cells +/− SD in Peyer's patches ([4]; cells cultured with 1000 nM): 0.2 +/− 0.1 /10^3 live cells
ATRA−/10^3 live cells +/− SD in spleen ([4]; cells cultured with 1000 nM): 8.0 +/− 1.4 /10^3 live cells
CD45.1+ cells/10^3 live cells +/− SD, Ileal LP ([4]; cells cultured with 1000 nM): 3.8 +/− 1.7 /10^3 live cells
CD45.1+ cells/10^3 live cells +/− SD, Peyer's patches ([4]; cells cultured with 1000 nM): 0.6 +/− 0.1 /10^3 live cells
CD45.1+ cells/10^3 live cells +/− SD, Spleen ([4]; cells cultured with 1000 nM): 10.6 +/− 1.9 /10^3 live cells
Total number of cells isolated (×10^3), Ileal LP ([4]; cells cultured with 1000 nM): 1730 +/− 1023 ×10^3
Total number of cells isolated (×10^3), Peyer's patches ([4]; cells cultured with 1000 nM): 775 +/− 360 ×10^3
Total number of cells isolated (×10^3), Spleen ([4]; cells cultured with 1000 nM): 90617 +/− 13418 ×10^3
